{"source": "paper PMC10905675", "about": "“INX-315, a Selective CDK2 Inhibitor, Induces Cell Cycle Arrest and Senescence in Solid Tumors” (Cancer Discovery, 2023)", "experiment_in_all_cases": "SelectScreen ZLYTE", "format_in_all_cases": "biochemical", "settings_in_all_cases": "INX-0315 at 100nM", "key": {"[1]": {"target": "T1, ADRBK1 (GRK2) (Homo sapiens, UniProt P25098)", "T1 construct": "purchased Thermo Fisher Scientific SelectScreen (plus Nanosyn / Reaction Biology for CDK/cyclin lines)", "source_text": "(§1) INX-315 was first evaluated in the SelectScreen Biochemical Kinase Profiling at Thermo Fisher Scientific (Madison, WI). The primary screen consisted of INX-315 dosed at a single concentration of 100 nmol/L in 1% DMSO across each platform within the SelectScreen array of assays, LanthaScreen Eu Kinase Binding Assay; AdaptaScreen; and Z'LyteScreen using preestablished conditions at Thermo Fisher Scientific as shown in Supplementary Table S2. […] The follow-up screen consisted of 10-point dose–response curves for INX-315 from 1 µmol/L to 0.0495 nmol/L."}, "[2]": {"target": "T2, ADRBK2 (GRK3) (Homo sapiens, UniProt P35626)", "T2 construct": "purchased Thermo Fisher Scientific SelectScreen (plus Nanosyn / Reaction Biology for CDK/cyclin lines)", "source_text": "as §1"}, "[3]": {"target": "T3, AMPK (A2/B2/G3) (Homo sapiens, UniProt P54646)", "T3 construct": "purchased Thermo Fisher Scientific SelectScreen (plus Nanosyn / Reaction Biology for CDK/cyclin lines)", "source_text": "as §1"}, "[4]": {"target": "T4, CLK3 (Homo sapiens, UniProt P49761)", "T4 construct": "purchased Thermo Fisher Scientific SelectScreen (plus Nanosyn / Reaction Biology for CDK/cyclin lines)", "source_text": "as §1"}, "[5]": {"target": "T5, CSK (Homo sapiens, UniProt P41240)", "T5 construct": "purchased Thermo Fisher Scientific SelectScreen (plus Nanosyn / Reaction Biology for CDK/cyclin lines)", "source_text": "as §1"}, "[6]": {"target": "T6, CSNK1G2 (CK1 gamma 2) (Homo sapiens, UniProt P78368)", "T6 construct": "purchased Thermo Fisher Scientific SelectScreen (plus Nanosyn / Reaction Biology for CDK/cyclin lines)", "source_text": "as §1"}, "[7]": {"target": "T7, CSNK2A2 (CK2 alpha 2) (Homo sapiens, UniProt P19784)", "T7 construct": "purchased Thermo Fisher Scientific SelectScreen (plus Nanosyn / Reaction Biology for CDK/cyclin lines)", "source_text": "as §1"}, "[8]": {"target": "T8, EGFR (ErbB1) (Homo sapiens, UniProt P00533)", "T8 construct": "purchased Thermo Fisher Scientific SelectScreen (plus Nanosyn / Reaction Biology for CDK/cyclin lines)", "source_text": "as §1"}, "[9]": {"target": "T9, EGFR (ErbB1) T790M L858R (Homo sapiens, UniProt P00533, L858R/T790M)", "T9 construct": "purchased Thermo Fisher Scientific SelectScreen (plus Nanosyn / Reaction Biology for CDK/cyclin lines)", "source_text": "as §1"}, "[10]": {"target": "T10, EPHB3 (Homo sapiens, UniProt P54753)", "T10 construct": "purchased Thermo Fisher Scientific SelectScreen (plus Nanosyn / Reaction Biology for CDK/cyclin lines)", "source_text": "as §1"}, "[11]": {"target": "T11, FLT1 (VEGFR1) (Homo sapiens, UniProt P17948)", "T11 construct": "purchased Thermo Fisher Scientific SelectScreen (plus Nanosyn / Reaction Biology for CDK/cyclin lines)", "source_text": "as §1"}, "[12]": {"target": "T12, FRK (PTK5) (Homo sapiens, UniProt P42685)", "T12 construct": "purchased Thermo Fisher Scientific SelectScreen (plus Nanosyn / Reaction Biology for CDK/cyclin lines)", "source_text": "as §1"}, "[13]": {"target": "T13, GRK5 (Homo sapiens, UniProt P34947)", "T13 construct": "purchased Thermo Fisher Scientific SelectScreen (plus Nanosyn / Reaction Biology for CDK/cyclin lines)", "T13 sequence (P34947 whole entry)": "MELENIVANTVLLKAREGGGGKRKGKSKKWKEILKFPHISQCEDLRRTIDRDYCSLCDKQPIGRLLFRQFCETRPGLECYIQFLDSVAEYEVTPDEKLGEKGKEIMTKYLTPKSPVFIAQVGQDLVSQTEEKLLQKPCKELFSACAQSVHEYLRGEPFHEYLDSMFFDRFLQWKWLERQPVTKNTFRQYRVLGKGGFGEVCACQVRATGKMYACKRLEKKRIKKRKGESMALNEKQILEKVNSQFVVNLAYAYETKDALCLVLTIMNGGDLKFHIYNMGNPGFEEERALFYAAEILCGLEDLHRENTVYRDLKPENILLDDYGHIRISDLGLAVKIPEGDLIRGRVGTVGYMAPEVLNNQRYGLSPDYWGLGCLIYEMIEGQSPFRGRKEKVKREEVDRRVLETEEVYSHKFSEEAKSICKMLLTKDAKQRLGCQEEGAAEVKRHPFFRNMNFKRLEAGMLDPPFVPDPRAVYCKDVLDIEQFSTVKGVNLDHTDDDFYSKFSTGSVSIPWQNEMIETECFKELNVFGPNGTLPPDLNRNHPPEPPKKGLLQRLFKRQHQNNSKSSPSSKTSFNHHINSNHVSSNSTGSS", "source_text": "as §1"}, "[14]": {"target": "T14, INSR (Homo sapiens, UniProt P06213)", "T14 construct": "purchased Thermo Fisher Scientific SelectScreen (plus Nanosyn / Reaction Biology for CDK/cyclin lines)", "source_text": "as §1"}, "[15]": {"target": "T15, INSRR (IRR) (Homo sapiens, UniProt P14616)", "T15 construct": "purchased Thermo Fisher Scientific SelectScreen (plus Nanosyn / Reaction Biology for CDK/cyclin lines)", "source_text": "as §1"}, "[16]": {"target": "T16, JAK1 (Homo sapiens, UniProt P23458)", "T16 construct": "purchased Thermo Fisher Scientific SelectScreen (plus Nanosyn / Reaction Biology for CDK/cyclin lines)", "source_text": "as §1"}, "[17]": {"target": "T17, JAK2 (Homo sapiens, UniProt O60674)", "T17 construct": "purchased Thermo Fisher Scientific SelectScreen (plus Nanosyn / Reaction Biology for CDK/cyclin lines)", "source_text": "as §1"}, "[18]": {"target": "T18, LYN B (Homo sapiens, UniProt P07948)", "T18 construct": "purchased Thermo Fisher Scientific SelectScreen (plus Nanosyn / Reaction Biology for CDK/cyclin lines)", "source_text": "as §1"}, "[19]": {"target": "T19, MAP2K1 (MEK1) (Homo sapiens, UniProt Q02750)", "T19 construct": "purchased Thermo Fisher Scientific SelectScreen (plus Nanosyn / Reaction Biology for CDK/cyclin lines)", "T19 sequence (Q02750 whole entry)": "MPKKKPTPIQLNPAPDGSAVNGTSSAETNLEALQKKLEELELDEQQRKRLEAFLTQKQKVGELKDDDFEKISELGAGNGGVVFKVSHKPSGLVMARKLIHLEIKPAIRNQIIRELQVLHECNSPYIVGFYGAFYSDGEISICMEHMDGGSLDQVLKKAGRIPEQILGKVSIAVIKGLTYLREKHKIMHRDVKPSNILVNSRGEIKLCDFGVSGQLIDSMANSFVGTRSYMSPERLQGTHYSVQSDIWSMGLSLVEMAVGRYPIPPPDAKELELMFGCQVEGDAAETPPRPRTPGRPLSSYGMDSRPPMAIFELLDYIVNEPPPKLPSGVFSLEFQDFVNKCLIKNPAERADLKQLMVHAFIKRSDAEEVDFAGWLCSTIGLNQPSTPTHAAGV", "source_text": "as §1"}, "[20]": {"target": "T20, MAP4K5 (KHS1) (Homo sapiens, UniProt Q9Y4K4)", "T20 construct": "purchased Thermo Fisher Scientific SelectScreen (plus Nanosyn / Reaction Biology for CDK/cyclin lines)", "T20 sequence (Q9Y4K4 whole entry)": "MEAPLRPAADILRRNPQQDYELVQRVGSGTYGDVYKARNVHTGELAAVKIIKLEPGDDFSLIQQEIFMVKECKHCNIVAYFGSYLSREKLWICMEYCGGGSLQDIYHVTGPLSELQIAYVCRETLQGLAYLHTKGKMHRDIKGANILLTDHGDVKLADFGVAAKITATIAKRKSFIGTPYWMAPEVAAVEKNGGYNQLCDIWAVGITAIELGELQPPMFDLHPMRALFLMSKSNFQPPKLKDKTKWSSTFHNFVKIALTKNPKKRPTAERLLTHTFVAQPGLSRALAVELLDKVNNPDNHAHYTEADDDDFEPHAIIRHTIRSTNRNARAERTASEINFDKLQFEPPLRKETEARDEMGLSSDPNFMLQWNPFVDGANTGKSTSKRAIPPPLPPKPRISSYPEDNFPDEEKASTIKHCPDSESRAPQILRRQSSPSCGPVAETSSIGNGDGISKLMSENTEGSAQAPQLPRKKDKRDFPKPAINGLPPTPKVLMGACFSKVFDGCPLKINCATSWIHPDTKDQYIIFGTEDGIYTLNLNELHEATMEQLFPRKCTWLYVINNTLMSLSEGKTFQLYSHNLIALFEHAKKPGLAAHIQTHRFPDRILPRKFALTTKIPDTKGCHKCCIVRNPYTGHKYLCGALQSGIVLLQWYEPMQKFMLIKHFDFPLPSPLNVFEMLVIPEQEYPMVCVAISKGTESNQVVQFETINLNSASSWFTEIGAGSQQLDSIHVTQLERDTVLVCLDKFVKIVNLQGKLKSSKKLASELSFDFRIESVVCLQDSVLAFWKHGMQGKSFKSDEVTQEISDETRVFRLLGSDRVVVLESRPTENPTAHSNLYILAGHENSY", "source_text": "as §1"}, "[21]": {"target": "T21, MAPK12 (p38 gamma) (Homo sapiens, UniProt P53778)", "T21 construct": "purchased Thermo Fisher Scientific SelectScreen (plus Nanosyn / Reaction Biology for CDK/cyclin lines)", "T21 sequence (P53778 whole entry)": "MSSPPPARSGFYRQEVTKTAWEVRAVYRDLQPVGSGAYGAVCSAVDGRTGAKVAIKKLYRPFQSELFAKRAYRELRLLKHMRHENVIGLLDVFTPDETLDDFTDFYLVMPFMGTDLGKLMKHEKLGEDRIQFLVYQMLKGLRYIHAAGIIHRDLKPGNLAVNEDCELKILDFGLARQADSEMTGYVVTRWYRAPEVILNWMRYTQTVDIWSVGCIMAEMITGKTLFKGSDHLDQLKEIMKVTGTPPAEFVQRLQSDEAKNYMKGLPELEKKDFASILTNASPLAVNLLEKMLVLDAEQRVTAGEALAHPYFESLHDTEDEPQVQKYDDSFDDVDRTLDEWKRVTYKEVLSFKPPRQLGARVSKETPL", "source_text": "as §1"}, "[22]": {"target": "T22, MAPK14 (p38 alpha) Direct (Homo sapiens, UniProt Q16539)", "T22 construct": "purchased Thermo Fisher Scientific SelectScreen (plus Nanosyn / Reaction Biology for CDK/cyclin lines)", "source_text": "as §1"}, "[23]": {"target": "T23, MAPK3 (ERK1) (Homo sapiens, UniProt P27361)", "T23 construct": "purchased Thermo Fisher Scientific SelectScreen (plus Nanosyn / Reaction Biology for CDK/cyclin lines)", "source_text": "as §1"}, "[24]": {"target": "T24, MAPKAPK5 (PRAK) (Homo sapiens, UniProt Q8IW41)", "T24 construct": "purchased Thermo Fisher Scientific SelectScreen (plus Nanosyn / Reaction Biology for CDK/cyclin lines)", "T24 sequence (Q8IW41 whole entry)": "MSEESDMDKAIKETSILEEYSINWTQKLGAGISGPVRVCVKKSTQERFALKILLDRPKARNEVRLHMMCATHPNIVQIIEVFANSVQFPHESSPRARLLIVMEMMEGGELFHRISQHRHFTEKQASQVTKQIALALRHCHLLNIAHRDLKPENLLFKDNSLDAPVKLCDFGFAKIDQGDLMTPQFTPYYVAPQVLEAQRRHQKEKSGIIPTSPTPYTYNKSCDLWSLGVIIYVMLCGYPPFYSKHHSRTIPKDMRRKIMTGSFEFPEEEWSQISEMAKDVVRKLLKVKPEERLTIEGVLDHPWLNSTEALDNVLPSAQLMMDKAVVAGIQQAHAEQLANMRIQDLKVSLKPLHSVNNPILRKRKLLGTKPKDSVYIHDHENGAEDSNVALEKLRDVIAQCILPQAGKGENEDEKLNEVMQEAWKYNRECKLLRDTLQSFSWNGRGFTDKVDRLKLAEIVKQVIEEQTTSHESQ", "source_text": "as §1"}, "[25]": {"target": "T25, MARK2 (Homo sapiens, UniProt Q7KZI7)", "T25 construct": "purchased Thermo Fisher Scientific SelectScreen (plus Nanosyn / Reaction Biology for CDK/cyclin lines)", "source_text": "as §1"}, "[26]": {"target": "T26, MARK4 (Homo sapiens, UniProt Q96L34)", "T26 construct": "purchased Thermo Fisher Scientific SelectScreen (plus Nanosyn / Reaction Biology for CDK/cyclin lines)", "source_text": "as §1"}, "[27]": {"target": "T27, NIM1K (Homo sapiens, UniProt Q8IY84)", "T27 construct": "purchased Thermo Fisher Scientific SelectScreen (plus Nanosyn / Reaction Biology for CDK/cyclin lines)", "source_text": "as §1"}, "[28]": {"target": "T28, NTRK3 (TRKC) (Homo sapiens, UniProt Q16288)", "T28 construct": "purchased Thermo Fisher Scientific SelectScreen (plus Nanosyn / Reaction Biology for CDK/cyclin lines)", "T28 sequence (Q16288 32-839)": "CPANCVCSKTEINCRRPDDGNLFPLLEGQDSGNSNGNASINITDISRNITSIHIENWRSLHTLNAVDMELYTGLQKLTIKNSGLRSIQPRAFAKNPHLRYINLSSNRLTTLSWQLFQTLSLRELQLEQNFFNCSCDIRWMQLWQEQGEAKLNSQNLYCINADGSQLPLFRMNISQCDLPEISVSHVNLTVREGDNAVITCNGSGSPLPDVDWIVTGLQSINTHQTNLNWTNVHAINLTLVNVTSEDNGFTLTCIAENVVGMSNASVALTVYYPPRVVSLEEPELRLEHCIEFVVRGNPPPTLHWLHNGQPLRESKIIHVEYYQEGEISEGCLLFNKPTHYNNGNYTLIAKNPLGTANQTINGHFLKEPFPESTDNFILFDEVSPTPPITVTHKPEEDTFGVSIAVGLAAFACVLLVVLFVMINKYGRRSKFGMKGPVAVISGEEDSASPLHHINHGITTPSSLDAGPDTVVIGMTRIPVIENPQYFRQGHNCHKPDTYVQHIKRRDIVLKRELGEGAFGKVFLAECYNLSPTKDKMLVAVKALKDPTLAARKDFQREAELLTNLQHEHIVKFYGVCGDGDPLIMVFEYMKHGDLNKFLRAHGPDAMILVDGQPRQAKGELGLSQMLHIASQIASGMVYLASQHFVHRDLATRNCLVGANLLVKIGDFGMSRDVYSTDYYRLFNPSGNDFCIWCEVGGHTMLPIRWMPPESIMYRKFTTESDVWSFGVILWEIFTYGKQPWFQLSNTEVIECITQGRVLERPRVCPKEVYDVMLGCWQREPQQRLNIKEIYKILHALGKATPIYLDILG", "source_text": "as §1"}, "[29]": {"target": "T29, PAK2 (PAK65) (Homo sapiens, UniProt Q13177)", "T29 construct": "purchased Thermo Fisher Scientific SelectScreen (plus Nanosyn / Reaction Biology for CDK/cyclin lines)", "source_text": "as §1"}, "[30]": {"target": "T30, PAK4 (Homo sapiens, UniProt O96013)", "T30 construct": "purchased Thermo Fisher Scientific SelectScreen (plus Nanosyn / Reaction Biology for CDK/cyclin lines)", "source_text": "as §1"}, "[31]": {"target": "T31, PRKCN (PKD3) (Homo sapiens, UniProt O94806)", "T31 construct": "purchased Thermo Fisher Scientific SelectScreen (plus Nanosyn / Reaction Biology for CDK/cyclin lines)", "source_text": "as §1"}, "[32]": {"target": "T32, PRKD2 (PKD2) (Homo sapiens, UniProt Q9BZL6)", "T32 construct": "purchased Thermo Fisher Scientific SelectScreen (plus Nanosyn / Reaction Biology for CDK/cyclin lines)", "T32 sequence (Q9BZL6 whole entry)": "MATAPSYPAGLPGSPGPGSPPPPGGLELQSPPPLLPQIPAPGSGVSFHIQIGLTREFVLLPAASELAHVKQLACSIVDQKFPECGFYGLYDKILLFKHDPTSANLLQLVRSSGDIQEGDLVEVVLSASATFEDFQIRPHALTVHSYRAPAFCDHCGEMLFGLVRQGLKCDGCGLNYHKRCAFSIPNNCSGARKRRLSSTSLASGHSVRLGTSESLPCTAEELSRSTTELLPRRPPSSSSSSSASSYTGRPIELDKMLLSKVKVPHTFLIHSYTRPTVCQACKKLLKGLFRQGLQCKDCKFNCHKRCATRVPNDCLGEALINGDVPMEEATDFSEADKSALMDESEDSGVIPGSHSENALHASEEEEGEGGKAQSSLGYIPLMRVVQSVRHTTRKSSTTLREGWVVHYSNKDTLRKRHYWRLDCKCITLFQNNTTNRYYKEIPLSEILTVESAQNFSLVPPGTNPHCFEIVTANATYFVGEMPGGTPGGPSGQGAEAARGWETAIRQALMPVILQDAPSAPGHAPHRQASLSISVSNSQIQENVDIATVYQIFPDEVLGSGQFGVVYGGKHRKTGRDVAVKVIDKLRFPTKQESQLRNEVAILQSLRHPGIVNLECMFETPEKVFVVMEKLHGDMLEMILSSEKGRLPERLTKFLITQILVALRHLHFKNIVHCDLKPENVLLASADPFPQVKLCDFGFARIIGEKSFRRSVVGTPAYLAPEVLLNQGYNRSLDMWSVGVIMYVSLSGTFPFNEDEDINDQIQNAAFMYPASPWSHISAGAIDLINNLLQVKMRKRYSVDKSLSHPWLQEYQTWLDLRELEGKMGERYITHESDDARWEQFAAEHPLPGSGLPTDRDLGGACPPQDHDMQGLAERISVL", "source_text": "as §1"}, "[33]": {"target": "T33, PRKX (Homo sapiens, UniProt P51817)", "T33 construct": "purchased Thermo Fisher Scientific SelectScreen (plus Nanosyn / Reaction Biology for CDK/cyclin lines)", "source_text": "as §1"}, "[34]": {"target": "T34, SGKL (SGK3) (Homo sapiens, UniProt Q96BR1)", "T34 construct": "purchased Thermo Fisher Scientific SelectScreen (plus Nanosyn / Reaction Biology for CDK/cyclin lines)", "source_text": "as §1"}, "[35]": {"target": "T35, SRC N1 (Homo sapiens, UniProt P12931)", "T35 construct": "purchased Thermo Fisher Scientific SelectScreen (plus Nanosyn / Reaction Biology for CDK/cyclin lines)", "T35 sequence (P12931 1-542 isoform P12931-2)": "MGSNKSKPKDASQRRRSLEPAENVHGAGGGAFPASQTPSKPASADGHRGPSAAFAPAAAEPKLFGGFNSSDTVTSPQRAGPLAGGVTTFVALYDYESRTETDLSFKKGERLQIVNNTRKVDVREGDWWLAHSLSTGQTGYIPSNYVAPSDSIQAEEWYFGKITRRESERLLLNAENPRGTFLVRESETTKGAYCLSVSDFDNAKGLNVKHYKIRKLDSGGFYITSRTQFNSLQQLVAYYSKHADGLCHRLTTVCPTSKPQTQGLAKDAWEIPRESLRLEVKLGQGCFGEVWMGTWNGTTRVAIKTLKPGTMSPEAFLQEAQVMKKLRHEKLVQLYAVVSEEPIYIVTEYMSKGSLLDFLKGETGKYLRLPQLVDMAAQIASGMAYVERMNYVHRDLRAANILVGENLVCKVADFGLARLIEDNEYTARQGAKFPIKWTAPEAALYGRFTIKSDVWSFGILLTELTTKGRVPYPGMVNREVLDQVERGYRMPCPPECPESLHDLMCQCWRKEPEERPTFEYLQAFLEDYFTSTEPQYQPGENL", "source_text": "as §1"}, "[36]": {"target": "T36, TBK1 (Homo sapiens, UniProt Q9UHD2)", "T36 construct": "purchased Thermo Fisher Scientific SelectScreen (plus Nanosyn / Reaction Biology for CDK/cyclin lines)", "source_text": "as §1"}, "[37]": {"target": "T37, TEK (Tie2) (Homo sapiens, UniProt Q02763)", "T37 construct": "purchased Thermo Fisher Scientific SelectScreen (plus Nanosyn / Reaction Biology for CDK/cyclin lines)", "source_text": "as §1"}}}
{"smiles": "NS(=O)(=O)c1ccc(Nc2ncc3cc4n(c3n2)C2(CCCCC2)C(=O)NN4)cc1", "note": "[INX-315]", "values": [{"measurement": "inhibition at 0.1 µM", "setting": "[1]", "result": 0, "unit": "%"}, {"measurement": "inhibition at 0.1 µM", "setting": "[2]", "result": 1, "unit": "%"}, {"measurement": "inhibition at 0.1 µM", "setting": "[3]", "result": 32, "unit": "%"}, {"measurement": "inhibition at 0.1 µM", "setting": "[4]", "result": -1, "unit": "%"}, {"measurement": "inhibition at 0.1 µM", "setting": "[5]", "result": 1, "unit": "%"}, {"measurement": "inhibition at 0.1 µM", "setting": "[6]", "result": 3, "unit": "%"}, {"measurement": "inhibition at 0.1 µM", "setting": "[7]", "result": 4, "unit": "%"}, {"measurement": "inhibition at 0.1 µM", "setting": "[8]", "result": 4, "unit": "%"}, {"measurement": "inhibition at 0.1 µM", "setting": "[9]", "result": 0, "unit": "%"}, {"measurement": "inhibition at 0.1 µM", "setting": "[10]", "result": 3, "unit": "%"}, {"measurement": "inhibition at 0.1 µM", "setting": "[11]", "result": 11, "unit": "%"}, {"measurement": "inhibition at 0.1 µM", "setting": "[12]", "result": 7, "unit": "%"}, {"measurement": "inhibition at 0.1 µM", "setting": "[13]", "result": 24, "unit": "%"}, {"measurement": "inhibition at 0.1 µM", "setting": "[14]", "result": 7, "unit": "%"}, {"measurement": "inhibition at 0.1 µM", "setting": "[15]", "result": 3, "unit": "%"}, {"measurement": "inhibition at 0.1 µM", "setting": "[16]", "result": 78, "unit": "%"}, {"measurement": "inhibition at 0.1 µM", "setting": "[17]", "result": 49, "unit": "%"}, {"measurement": "inhibition at 0.1 µM", "setting": "[18]", "result": 17, "unit": "%"}, {"measurement": "inhibition at 0.1 µM", "setting": "[19]", "result": 15, "unit": "%"}, {"measurement": "inhibition at 0.1 µM", "setting": "[20]", "result": 23, "unit": "%"}, {"measurement": "inhibition at 0.1 µM", "setting": "[21]", "result": 9, "unit": "%"}, {"measurement": "inhibition at 0.1 µM", "setting": "[22]", "result": 5, "unit": "%"}, {"measurement": "inhibition at 0.1 µM", "setting": "[23]", "result": 2, "unit": "%"}, {"measurement": "inhibition at 0.1 µM", "setting": "[24]", "result": 2, "unit": "%"}, {"measurement": "inhibition at 0.1 µM", "setting": "[25]", "result": 9, "unit": "%"}, {"measurement": "inhibition at 0.1 µM", "setting": "[26]", "result": 8, "unit": "%"}, {"measurement": "inhibition at 0.1 µM", "setting": "[27]", "result": 5, "unit": "%"}, {"measurement": "inhibition at 0.1 µM", "setting": "[28]", "result": 84, "unit": "%"}, {"measurement": "inhibition at 0.1 µM", "setting": "[29]", "result": 5, "unit": "%"}, {"measurement": "inhibition at 0.1 µM", "setting": "[30]", "result": 7, "unit": "%"}, {"measurement": "inhibition at 0.1 µM", "setting": "[31]", "result": 13, "unit": "%"}, {"measurement": "inhibition at 0.1 µM", "setting": "[32]", "result": 5, "unit": "%"}, {"measurement": "inhibition at 0.1 µM", "setting": "[33]", "result": 3, "unit": "%"}, {"measurement": "inhibition at 0.1 µM", "setting": "[34]", "result": 6, "unit": "%"}, {"measurement": "inhibition at 0.1 µM", "setting": "[35]", "result": 9, "unit": "%"}, {"measurement": "inhibition at 0.1 µM", "setting": "[36]", "result": 5, "unit": "%"}, {"measurement": "inhibition at 0.1 µM", "setting": "[37]", "result": -1, "unit": "%"}]}
